Results taken from ChEMBL document CHEMBL1201862, “PubChem BioAssay data set” (2004).
Active and inactive are the calls of the source.

Legend:
[1] = HepG2 cell cytotoxicity, dose response, cytotoxicity control, plate reader, cherry-pick, antagonist series (AID 743416); assay type: functional, cell-based
[2] = A549 cell cytotoxicity, dose response, cytotoxicity control, plate reader, cherry-pick, antagonist series (AID 743412); assay type: functional, cell-based
[3] = HEK293 cell cytotoxicity, dose response, cytotoxicity control, plate reader, cherry-picked samples (AID 743446); assay type: functional, cell-based
[4] = CRF-BP/CRF-R2 complex antagonists, dose response, cell-based, uHTS hits, 384-well (AID 651639); assay type: functional, Homo sapiens; conditions: read-out: IC50_Mean
[5] = HEp-2 cell cytotoxicity, dose response, cytotoxicity control for RSV inhibitor project, HTS (AID 2410); assay type: functional; conditions: human respiratory syncytial virus
[6] = target: T1, Corticotropin-releasing factor receptor 2/Corticotropin-releasing factor-binding protein (Homo sapiens, UniProt P24387+Q13324); assay: activators of CRF receptor 2 with binding protein – uHTS hits, confirmation (AID 602473); assay type: functional; conditions: read-out: EC50_Mean
T1 sequence (Q13324 whole entry): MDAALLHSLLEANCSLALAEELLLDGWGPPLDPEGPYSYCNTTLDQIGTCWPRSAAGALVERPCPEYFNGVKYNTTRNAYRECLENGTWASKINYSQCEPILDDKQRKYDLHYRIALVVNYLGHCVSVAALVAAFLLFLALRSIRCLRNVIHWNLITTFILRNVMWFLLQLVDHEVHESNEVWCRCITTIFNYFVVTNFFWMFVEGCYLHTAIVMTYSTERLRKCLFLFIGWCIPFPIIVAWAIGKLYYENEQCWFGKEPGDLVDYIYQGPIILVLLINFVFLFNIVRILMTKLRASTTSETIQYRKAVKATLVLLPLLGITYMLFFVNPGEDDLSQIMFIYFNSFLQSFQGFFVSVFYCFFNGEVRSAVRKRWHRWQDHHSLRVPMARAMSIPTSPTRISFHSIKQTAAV
T1 sequence (P24387 whole entry): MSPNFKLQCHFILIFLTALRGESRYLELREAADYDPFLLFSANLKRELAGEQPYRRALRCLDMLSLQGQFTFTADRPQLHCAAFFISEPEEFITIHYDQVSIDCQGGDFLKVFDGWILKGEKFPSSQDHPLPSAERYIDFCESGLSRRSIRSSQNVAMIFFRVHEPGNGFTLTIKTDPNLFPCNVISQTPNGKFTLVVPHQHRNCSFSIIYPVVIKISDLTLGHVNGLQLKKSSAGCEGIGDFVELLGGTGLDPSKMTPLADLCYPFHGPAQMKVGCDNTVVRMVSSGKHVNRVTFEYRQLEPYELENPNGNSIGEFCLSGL

[7] = microbe, parasite or virus in culture; assay type: functional; conditions: Mycobacterium tuberculosis
[8] = target: T1, Corticotropin-releasing factor receptor 2/Corticotropin-releasing factor-binding protein; assay: Dose Response confirmation of uHTS hits for small molecule antagonists of the CRF-binding protein and CRF-R2 receptor complex.; assay type: functional; conditions: read-out: IC50_Mean
[9] = target: T2, Caspase-6 (Homo sapiens, UniProt P55212); assay: human caspase-6 inhibitors, dose response, biochemical, VEID-R110 fluorescence, cherry-pick (AID 720632)
T2 sequence (P55212 whole entry): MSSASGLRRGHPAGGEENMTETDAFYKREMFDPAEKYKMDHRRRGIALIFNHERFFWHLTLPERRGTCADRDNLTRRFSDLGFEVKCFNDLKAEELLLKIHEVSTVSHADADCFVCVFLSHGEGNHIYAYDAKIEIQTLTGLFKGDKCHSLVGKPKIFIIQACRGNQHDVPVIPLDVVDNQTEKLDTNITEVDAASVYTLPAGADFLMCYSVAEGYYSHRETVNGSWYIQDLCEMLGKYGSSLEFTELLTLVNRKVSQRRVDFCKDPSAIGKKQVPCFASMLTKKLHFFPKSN

[10] = target: T3, Protein Tat (Human immunodeficiency virus type 1 group M subtype B (isolate HXB2)(HIV-1), UniProt P04608); assay type: functional;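 note: tat binding to TAR RNA read out by fluorescence polarization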
T3 sequence (P04608 whole entry): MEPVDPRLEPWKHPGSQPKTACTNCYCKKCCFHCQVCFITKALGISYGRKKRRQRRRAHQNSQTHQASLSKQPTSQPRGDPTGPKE

[11] = MC4R antagonists, dose response, counter-screen for LGR2 antagonist project, cell-based, plate reader, cherry pick (AID 743444); assay type: functional;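 note: transfected HEK 293 cells stimulated with alpha-MSH peptide; potency of inhibitors of the alpha-MSH evoked signal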
[12] = LGR2 antagonists, dose response, cell-based, HEK293, CRE-luciferase reporter, cherry pick, set 2 (AID 743343); assay type: functional;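 note: transfected cells were stimulated with diluted bursicon conditioned medium after compound addition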
[13] = target: T4, Long-chain-fatty-acid--AMP ligase FadD28 (Mycobacterium tuberculosis, UniProt P9WQ59); assay: Fluorescence polarization aasay to screen for inhibitors that compete for the binding of FadD28 to a bisubstrate Measured in Biochemical System Using Plate Reader - 2147-01_Inhibitor_Dose_CherryPick_Activity.; assay type: functional, Mycobacterium tuberculosis H37Rv
T4 sequence (P9WQ59 whole entry): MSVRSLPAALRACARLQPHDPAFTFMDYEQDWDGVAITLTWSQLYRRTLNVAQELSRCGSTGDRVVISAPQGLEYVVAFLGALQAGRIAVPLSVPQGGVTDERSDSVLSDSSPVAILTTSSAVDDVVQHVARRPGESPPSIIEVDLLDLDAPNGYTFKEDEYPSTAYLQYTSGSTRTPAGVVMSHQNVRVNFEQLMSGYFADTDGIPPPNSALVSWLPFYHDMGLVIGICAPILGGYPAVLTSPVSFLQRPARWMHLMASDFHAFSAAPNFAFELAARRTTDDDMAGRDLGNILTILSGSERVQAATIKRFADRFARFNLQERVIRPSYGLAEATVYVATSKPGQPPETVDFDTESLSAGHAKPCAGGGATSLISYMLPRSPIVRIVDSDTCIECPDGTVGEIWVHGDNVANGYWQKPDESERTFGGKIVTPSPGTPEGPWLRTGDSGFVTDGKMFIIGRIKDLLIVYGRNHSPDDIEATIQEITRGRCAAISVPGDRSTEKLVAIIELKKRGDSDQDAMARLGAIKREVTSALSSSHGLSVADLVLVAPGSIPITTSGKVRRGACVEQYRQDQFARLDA

[14] = target: T5, Estrogen receptor (Homo sapiens, UniProt P03372);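 note: potency for inhibiting coactivator peptide recruitment to the receptor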
T5 sequence (P03372 whole entry): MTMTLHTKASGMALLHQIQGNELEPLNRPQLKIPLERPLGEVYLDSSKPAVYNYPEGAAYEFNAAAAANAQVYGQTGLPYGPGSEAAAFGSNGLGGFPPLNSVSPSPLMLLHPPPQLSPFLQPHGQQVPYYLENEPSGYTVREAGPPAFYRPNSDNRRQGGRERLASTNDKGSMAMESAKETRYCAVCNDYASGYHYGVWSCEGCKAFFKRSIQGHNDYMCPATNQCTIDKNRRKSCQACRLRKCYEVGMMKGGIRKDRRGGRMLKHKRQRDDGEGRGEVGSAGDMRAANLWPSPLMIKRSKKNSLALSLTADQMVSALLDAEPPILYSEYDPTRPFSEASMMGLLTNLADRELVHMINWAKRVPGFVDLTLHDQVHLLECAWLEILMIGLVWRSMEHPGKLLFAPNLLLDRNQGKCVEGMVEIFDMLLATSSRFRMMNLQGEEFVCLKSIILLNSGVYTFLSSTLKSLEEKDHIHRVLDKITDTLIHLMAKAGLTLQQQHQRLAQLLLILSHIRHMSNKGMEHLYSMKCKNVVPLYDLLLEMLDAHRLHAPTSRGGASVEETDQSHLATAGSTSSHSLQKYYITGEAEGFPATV

[15] = target: 26S proteasome non-ATPase regulatory subunit 14 (Homo sapiens, UniProt O00487); assay: inhibition of proteasome subunit RPN11 – biochemical, fluorescence polarization, uHTS hits, confirmation (AID 602368); assay type: functional
Chain of 26S proteasome non-ATPase regulatory subunit 14 (O00487 whole entry): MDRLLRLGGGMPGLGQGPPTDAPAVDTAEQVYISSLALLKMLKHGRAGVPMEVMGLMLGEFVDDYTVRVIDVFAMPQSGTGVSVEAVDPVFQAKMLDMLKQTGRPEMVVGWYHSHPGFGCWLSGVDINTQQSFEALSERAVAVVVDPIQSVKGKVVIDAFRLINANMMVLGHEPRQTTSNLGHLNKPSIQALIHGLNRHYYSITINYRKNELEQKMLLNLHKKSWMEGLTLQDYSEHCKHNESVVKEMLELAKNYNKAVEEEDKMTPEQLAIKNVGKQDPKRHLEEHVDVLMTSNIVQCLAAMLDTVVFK

[16] = target: 72 kDa type IV collagenase (Homo sapiens, UniProt P08253); assay: Dose Response validation of uHTS RPN11 inhibitor hits using a MMP-2 Fluorescence assay.; assay type: functional
Chain of 72 kDa type IV collagenase (P08253 whole entry): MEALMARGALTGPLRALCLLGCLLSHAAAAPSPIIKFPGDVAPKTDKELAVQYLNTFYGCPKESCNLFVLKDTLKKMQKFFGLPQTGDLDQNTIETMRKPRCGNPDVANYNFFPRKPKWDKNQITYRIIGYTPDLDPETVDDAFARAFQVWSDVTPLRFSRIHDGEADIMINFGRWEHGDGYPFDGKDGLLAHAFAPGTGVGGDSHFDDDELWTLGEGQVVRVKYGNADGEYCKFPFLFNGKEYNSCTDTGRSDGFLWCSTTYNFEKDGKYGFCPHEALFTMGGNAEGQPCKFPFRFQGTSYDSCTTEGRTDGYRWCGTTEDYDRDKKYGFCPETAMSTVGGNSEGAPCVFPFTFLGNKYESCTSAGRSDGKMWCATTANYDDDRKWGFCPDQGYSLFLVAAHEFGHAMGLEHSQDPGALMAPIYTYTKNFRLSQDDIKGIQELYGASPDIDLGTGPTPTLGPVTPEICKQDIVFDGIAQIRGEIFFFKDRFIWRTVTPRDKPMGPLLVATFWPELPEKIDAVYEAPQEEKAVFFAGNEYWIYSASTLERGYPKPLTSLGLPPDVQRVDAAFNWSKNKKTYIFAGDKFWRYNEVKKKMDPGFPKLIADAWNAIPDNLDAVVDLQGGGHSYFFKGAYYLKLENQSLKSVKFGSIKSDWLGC

[17] = target: Prothrombin (Bos taurus, UniProt P00735); assay: thrombin inhibition, dose response, biochemical, fluorescence polarization, uHTS hits (AID 602369); assay type: functional
[18] = inhibitors of HIV Env-driven cell fusion, dose response, cherry-pick (AID 652057); assay type: functional, cell-based
[19] = off-target signal loss in HeLa-CEM21 co-culture – HeLa F-luc CTL cells, cherry-picked, counter-screen for HIV-1 Env fusion inhibitor project, dose response (AID 652040); assay type: functional, cell-based;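 note: potency for signal decrease marking cytotoxic or nonspecific inhibition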
[20] = ZM109 Env clade C HIV-1 fusion inhibitors, dose response, HeLa effector, CEM target cells, luciferase, cherry-pick (AID 652058); assay type: functional, cell-based
[21] = inhibitors of clade B AD8 Env fusion, dose response, cell-based, cherry-pick (AID 652062); assay type: functional;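 note: luciferase signal from cell-cell fusion driven by HIV-1 clade B AD8 Env; potency is for inhibitors of fusion seen as a drop in luminescence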
[22] = target: Large T antigen (Simian virus 40, UniProt P03070); assay type: functional, Betapolyomavirus macacae;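 note: Confirmatory-stage PubChem screen for compounds that inhibit SV40 T antigen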
Chain of Large T antigen (P03070 whole entry): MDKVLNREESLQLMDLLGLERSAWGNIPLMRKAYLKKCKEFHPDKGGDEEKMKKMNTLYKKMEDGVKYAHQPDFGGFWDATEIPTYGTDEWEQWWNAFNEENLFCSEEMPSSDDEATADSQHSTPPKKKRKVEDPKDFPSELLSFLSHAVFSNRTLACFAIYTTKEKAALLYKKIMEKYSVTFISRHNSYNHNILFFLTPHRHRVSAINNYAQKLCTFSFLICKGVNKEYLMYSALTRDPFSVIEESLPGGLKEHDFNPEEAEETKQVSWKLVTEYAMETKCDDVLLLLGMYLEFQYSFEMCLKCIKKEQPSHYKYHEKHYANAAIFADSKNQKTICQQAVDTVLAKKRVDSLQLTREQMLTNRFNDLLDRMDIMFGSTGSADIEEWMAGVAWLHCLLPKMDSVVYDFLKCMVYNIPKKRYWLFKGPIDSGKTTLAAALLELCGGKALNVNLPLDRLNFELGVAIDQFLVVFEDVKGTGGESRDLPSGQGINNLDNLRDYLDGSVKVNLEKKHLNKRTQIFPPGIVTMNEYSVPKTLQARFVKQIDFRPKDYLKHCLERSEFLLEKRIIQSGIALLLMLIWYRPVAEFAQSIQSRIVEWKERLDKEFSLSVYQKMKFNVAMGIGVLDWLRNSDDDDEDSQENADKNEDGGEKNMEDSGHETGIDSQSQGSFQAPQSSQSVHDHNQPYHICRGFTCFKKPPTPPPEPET

[23] = system: H9c2; assay: cells; assay type: functional, cell-based; conditions: Rattus norvegicus, H9c2, Myocardium;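 note: confirmatory concentration-response retest of ultra-high-throughput screening hits for modulation of myocardial damage; cell death induced by hydrogen peroxide oxidative stress; compound pretreatment for 60 min then peroxide exposure for 2 h; potency is for protecting the cells against peroxide damage rather than for killing them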
[24] = target: Disintegrin and metalloproteinase domain-containing protein 17 (Homo sapiens, UniProt P78536); assay: exosite inhibitors of ADAM17, dose response, biochemical (AID 743260)
Chain of Disintegrin and metalloproteinase domain-containing protein 17 (P78536 whole entry, the tested form may be a part): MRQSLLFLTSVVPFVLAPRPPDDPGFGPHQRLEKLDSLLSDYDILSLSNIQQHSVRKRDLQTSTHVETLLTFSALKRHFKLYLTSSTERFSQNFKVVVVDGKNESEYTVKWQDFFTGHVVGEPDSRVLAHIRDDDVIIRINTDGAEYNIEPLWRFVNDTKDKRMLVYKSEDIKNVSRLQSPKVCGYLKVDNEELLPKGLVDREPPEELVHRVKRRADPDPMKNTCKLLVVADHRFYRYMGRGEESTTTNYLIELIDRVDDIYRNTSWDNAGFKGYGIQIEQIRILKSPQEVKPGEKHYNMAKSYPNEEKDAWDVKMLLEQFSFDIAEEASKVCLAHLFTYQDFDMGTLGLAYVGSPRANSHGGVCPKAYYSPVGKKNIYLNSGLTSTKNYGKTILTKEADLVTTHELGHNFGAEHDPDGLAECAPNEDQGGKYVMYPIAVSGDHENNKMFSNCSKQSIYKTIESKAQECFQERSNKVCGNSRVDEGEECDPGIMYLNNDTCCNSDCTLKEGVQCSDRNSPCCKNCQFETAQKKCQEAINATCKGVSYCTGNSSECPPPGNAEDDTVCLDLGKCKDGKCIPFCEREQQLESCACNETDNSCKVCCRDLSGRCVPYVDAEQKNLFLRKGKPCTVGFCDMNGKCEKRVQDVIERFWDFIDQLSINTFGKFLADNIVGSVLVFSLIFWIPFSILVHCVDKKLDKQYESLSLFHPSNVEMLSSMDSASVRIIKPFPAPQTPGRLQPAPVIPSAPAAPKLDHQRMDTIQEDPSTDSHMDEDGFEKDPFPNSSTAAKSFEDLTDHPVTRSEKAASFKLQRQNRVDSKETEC

CC(C)(C)c1nc2ccc(Cl)cn2c1CC1CCCCC1
AC50 [1]: > 52 µM (inactive) | AC50 [2]: > 52 µM (inactive) | AC50 [3]: > 52 µM (inactive)

COC(=O)C(NC(=O)c1ccc(OC)cc1)(Nc1ncc(S(=O)(=O)c2ccc([N+](=O)[O-])cc2)s1)C(F)(F)F (configuration not stated)
IC50 [4]: 2.58 µM (active) | CC50 [5]: 13.4 µM (active) | EC50 [6]: > 53 µM (inactive) | CC50 [7]: > 40 µM (active) | IC50 [8]: < 0.368 µM (active)

O=C(NN1C(=O)C2CC=C(Cl)CC2C1=O)c1ccncc1 (configuration not stated)
AC50 [9]: 16.5 µM (active)

CCOC(=O)c1c(NC(=O)c2c(Br)cnn2C)c(C#N)nn1-c1ccccc1
IC50 [4]: 18.4 µM (active) | EC50 [6]: > 53 µM (inactive) | IC50 [8]: 43.9 µM (active)

O=C(COC(=O)c1cnc(Cl)c(Cl)c1)NCCC1=CCCCC1
IC50 [4]: 7.15 µM (active) | EC50 [6]: > 53 µM (inactive) | IC50 [8]: 7.16 µM (active)

CC(C)CC(NC(=O)/C(=C/c1ccco1)NC(=O)c1ccc(Br)o1)C(=O)O (configuration not stated)
IC50 [10]: > 100 µM (active) | EC50 [6]: > 53 µM (inactive) | IC50 [8]: > 47.1 µM (inactive)

Cc1ccsc1/C=N\NC(=O)c1[nH]nc2c1CCC2
AC50 [11]: 7.75 µM (active) | AC50 [12]: 6.59 µM (active) | AC50 [1]: 4.37 µM (active) | AC50 [2]: 3.65 µM (active) | AC50 [3]: 16.4 µM (active)

CC(=O)Nc1ccc(/N=C(/C2=C(O)c3ccccc3C2=O)c2ccccc2)cc1
AC50 [13]: > 100 µM (inactive)

Brc1ccccc1-c1nnc(CSc2nnnn2-c2ccccc2)o1
IC50 [4]: 1.36 µM (active) | EC50 [6]: > 53 µM (inactive) | IC50 [8]: 8.93 µM (active) | IC50 [14]: > 50 µM (not active)

NC(=O)CC(NC(=O)Cc1ccc(Cl)cc1)c1ccc(NC2CCCC2)c([N+](=O)[O-])c1 (configuration not stated)
IC50 [15]: 29.9 µM (active) | IC50 [16]: > 100 µM (inactive) | IC50 [17]: 38.8 µM (active)

C=C1CCN([C@H](C(=O)OCc2ccc(C)cc2)C(C)C)S(=O)(=O)c2ccccc21
AC50 [18]: 3.35 µM (active) | AC50 [19]: 5.69 µM (active) | AC50 [20]: 7.43 µM (active) | AC50 [21]: 13.2 µM (active)

CC[C@@]12C(=O)N(c3ccc(C)cc3)C(=O)N1[C@H](c1ccc(Br)cc1)[C@@H]1C(=O)N(C(C)(C)C)C(=O)[C@@H]12
AC50 [18]: 0.301 µM (active) | AC50 [19]: 0.559 µM (active) | AC50 [20]: < 0.5 µM (active) | AC50 [21]: 1.06 µM (active) | CC50 [5]: > 50 µM (active)

O=C1CCCC2=C1C(c1ccc(Cl)cc1)C1C(=O)c3ccccc3C1=N2 (configuration not stated)
CC50 [5]: 17 µM (active) | AC50 [13]: > 100 µM (inactive)

O=C(Cc1ccccc1)N1CCCCN2[C@H](CO)[C@@H](c3ccc(C#Cc4ccccc4)cc3)[C@H]2C1
AC50 [9]: 47.3 µM (active)

COc1ccc(C(=O)NCc2ccc(C)cc2)cc1S(=O)(=O)N1CCCC1
AC50 [13]: 19 µM (active)

N#C/C(=C\c1ccc(O)c(O)c1)C(=O)N1CCc2ccccc21
IC50 [15]: 0.798 µM (active) | IC50 [16]: > 100 µM (inactive) | IC50 [22]: 11.9 µM (active) | IC50 [17]: 45.9 µM (active)

COc1cccc(C2CC(c3ccccc3)=NN2S(=O)(=O)c2ccccc2)c1OC (configuration not stated)
AC50 [13]: 62.2 µM (active)

O=C1OCCN1C(=O)[C@H]1[C@H](c2ccc([N+](=O)[O-])cc2)C(c2ccccc2)=NN1c1ccc(Br)cc1
IC50 [23]: 15.2 µM (active) | IC50 [24]: > 69.5 µM (inactive)

Cc1cc(/C=N/NC(=O)C(O)(c2ccccc2)c2ccccc2)c(C)n1-c1cccc(C(=O)O)c1
AC50 [9]: 1.78 µM (active)
